# Data taken from patent US11001590B2, “Pyrazolopyrimidine derivatives” (BAYER ANIMAL HEALTH GMBH, priority 2016, dated 2021).
# Columns and labels:
# [1] = tested on: Nippostrongylus brasiliensis; assay: In vitro assay 2: Nippostrongylus brasiliensis (NIPOBR), acetylcholine esterase readout; details: adult worms, read-out: activity (reduction of AChE compared to negative control); for inhibition at 10 µg/mL: 10 μg/ml (10 ppm)
# Description: In Vitro Assay 2: Nippostronqylus Brasiliensis (NIPOBR)
# Adult Nippostrongylus brasiliensis were washed with saline buffer containing 100 U/ml penicillin, 0.1 mg/ml streptomycin and 2.5 μg/ml amphotericin B. Test compounds were dissolved in DMSO and worms were incubated in medium in a final concentration of 10 μg/ml (10 ppm) respectively 1 μg/ml (1 ppm). An aliquot of the medium was used to determine the acetylcholine esterase activity in comparison to a negative control. The principle of measuring acetylcholine esterase as readout for anthelmintic activity was described in Rapson et al (1986) and Rapson et al (1987).
# [2] = tested on: Dirofilaria immitis microfilariae; assay: In vitro assay 3: Dirofilaria immitis microfilariae (DIROIM L1), motility; details: 72 h, reduction of motility vs negative control, 72 h incubation
# [3] = log P by HPLC on reversed phase columns (Method L0; [a] acidic, [b] neutral range)
# Description: Calibration was done with straight-chain alkan-2-ones (with 3 to 16 carbon atoms) with known log P values (measurement of log P values using retention times with linear interpolation between successive alkanones). Lambda-max-values were determined using UV-spectra from 200 nm to 400 nm and the peak values of the chromatographic signals.
# [4] = target: C. elegans Slo-1a (Caenorhabditis elegans, UniProt Q95V25); assay: In vitro assay 1: C. elegans Slo-1a, action at a recombinant C. elegans CHO cell line (membrane potential measurement)
# C. elegans Slo-1a, sequence (Q95V25 whole entry): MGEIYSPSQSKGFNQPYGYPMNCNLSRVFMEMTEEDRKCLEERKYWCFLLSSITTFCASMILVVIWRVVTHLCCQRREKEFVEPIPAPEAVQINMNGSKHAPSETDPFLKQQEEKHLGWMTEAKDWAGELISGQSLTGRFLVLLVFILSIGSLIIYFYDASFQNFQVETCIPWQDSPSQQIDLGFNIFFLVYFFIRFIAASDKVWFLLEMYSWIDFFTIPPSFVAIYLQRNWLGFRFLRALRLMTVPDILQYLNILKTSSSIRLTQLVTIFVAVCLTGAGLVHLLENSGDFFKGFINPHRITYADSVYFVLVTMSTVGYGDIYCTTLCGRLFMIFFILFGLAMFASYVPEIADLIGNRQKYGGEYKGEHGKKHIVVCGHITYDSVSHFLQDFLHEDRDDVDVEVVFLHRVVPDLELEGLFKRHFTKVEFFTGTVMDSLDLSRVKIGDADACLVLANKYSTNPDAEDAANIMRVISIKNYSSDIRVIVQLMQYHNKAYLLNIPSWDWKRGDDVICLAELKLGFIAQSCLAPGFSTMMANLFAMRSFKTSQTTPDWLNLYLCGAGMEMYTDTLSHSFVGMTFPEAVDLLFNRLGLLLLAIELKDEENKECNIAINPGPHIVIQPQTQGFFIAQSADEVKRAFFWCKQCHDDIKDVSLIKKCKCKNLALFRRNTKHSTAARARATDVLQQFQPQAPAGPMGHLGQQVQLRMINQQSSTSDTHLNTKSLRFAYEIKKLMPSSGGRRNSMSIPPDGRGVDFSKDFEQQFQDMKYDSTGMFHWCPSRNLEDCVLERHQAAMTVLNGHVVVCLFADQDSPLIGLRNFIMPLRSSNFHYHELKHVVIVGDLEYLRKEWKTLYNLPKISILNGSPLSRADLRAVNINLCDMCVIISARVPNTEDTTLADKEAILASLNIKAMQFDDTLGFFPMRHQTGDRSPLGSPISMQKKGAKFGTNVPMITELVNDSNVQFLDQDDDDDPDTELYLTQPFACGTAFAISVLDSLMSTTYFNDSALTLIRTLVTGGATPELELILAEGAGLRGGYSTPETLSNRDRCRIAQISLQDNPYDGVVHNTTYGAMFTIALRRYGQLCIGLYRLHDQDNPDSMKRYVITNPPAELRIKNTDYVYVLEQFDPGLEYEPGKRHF
# [5] = tested on: Dirofilaria immitis third-stage larvae; assay: In vitro assay 4: Dirofilaria immitis (DIROIM L4), motility of larvae; details: 72 h
# [6] = tested on: Litomosoides sigmodontis third-stage larvae; assay: In vitro assay 7: Litomosoides sigmodontis L3 (LTMOSI), motility; details: 72 h, reduction of motility vs negative control, 72 h incubation
# Description: In Vitro Assay 7: Litomosoides Siqmodontis L3 (LTMOSI)
# 10 Litomosoides sigmodontis third-stage larvae, which were freshly isolated from the pleural cavity of an infected rodent, were added to wells of a microtitre plate containing a nutrient medium and the test compound in DMSO. Compounds were tested in concentration-response assay in duplicate. Larvae exposed to DMSO and no test compounds were used as negative controls. Larvae were evaluated after 72 h of incubation with the compound. Efficacy was determined as the reduction of motility in comparison to the negative control. Based on the evaluation of a wide concentration range, concentration-response curves as well as ECso-values were calculated.
Compound,inhibition at 10 µg/mL [1] [%],EC50 [2] [µg/mL],chromatographic logP [3],EC50 [4] [nM],EC50 [5] [µg/mL],EC50 [6] [µg/mL],inhibition at 1 µg/mL ([1]; 1 μg/ml (1 ppm)) [%]
Cc1nn2c(C(C)C)c(C(=O)N[C@H]3CCc4ccccc43)cnc2c1-c1ccc(F)c(C(F)(F)F)c1 [Example 294],> 80,< 10,5.36,50.1,,,
CCn1cc(-c2c(C)nn3c(C(C)C)c(C(=O)N[C@H]4CCc5ccccc54)cnc23)cn1 [Example 374],> 80,< 10,3.44,50.1,,,
Cc1nn2c(C(C)C)c(C(=O)N[C@H]3CCc4ccccc43)cnc2c1-c1cnn(CC2CC2)c1 [Example 376],> 80,< 10,3.83,7.94,,,
Cc1nn2c(C(C)C)c(C(=O)N[C@H]3CCc4ccccc43)cnc2c1-c1cnn(CC(F)F)c1 [Example 377],> 80,< 10,3.49,15.8,,,
COCc1cccc(-c2c(C)nn3c(C(C)C)c(C(=O)N[C@H]4CCOc5ccccc54)cnc23)c1 [Example 392],> 80,< 0.1,4.16,10,,,
Cc1nn2c(C(C)C)c(C(=O)N[C@H]3CCOc4ccccc43)cnc2c1-c1cccc(N(C)C)c1 [Example 393],> 80,< 0.1,3.64,10,,,
Cc1nn2c(C(C)C)c(C(=O)N[C@H]3CCOc4ccccc43)cnc2c1-c1cnn(CC2CC2)c1 [Example 419],> 80,< 10,3.59,7.94,,,
Cc1nn2c(C(C)C)c(C(=O)N[C@H]3CCOc4ccccc43)cnc2c1-c1cccc(N2CC(F)(F)C2)c1 [Example 440],> 80,< 1,4.64,12.6,,,
COCc1cccc(-c2c(C)nn3c(C4CC4)c(C(=O)N[C@H]4CCOc5ccccc54)cnc23)c1 [Example 451],> 80,< 1,3.43,7.94,,,
Cc1nn2c(C3CC3)c(C(=O)N[C@H]3CCOc4ccccc43)cnc2c1-c1ccccc1Cl [Example 452],,< 0.1,3.64,2.51,< 0.1,< 0.1,
Cc1nn2c(C3CC3)c(C(=O)N[C@H]3CCOc4ccccc43)cnc2c1-c1cccc(F)c1F [Example 457],,< 0.1,3.61,1.26,< 0.1,< 0.1,
Cc1nn2c(C3CC3)c(C(=O)N[C@H]3CCOc4ccccc43)cnc2c1-c1c(F)cccc1Cl [Example 458],,< 0.1,3.65,1.58,< 0.1,< 0.1,
Cc1nn2c(C(C)C)c(C(=O)N[C@H]3CCOc4ccccc43)cnc2c1-c1cccc(N2CC(F)C2)c1 [Example 459],> 80,< 1,4.36,10,,,
Cc1nn2c(C3CC3)c(C(=O)N[C@H]3CCOc4ccccc43)cnc2c1-c1cc(Cl)cc(C(F)(F)F)c1 [Example 465],,< 0.1,5.11,10,< 0.1,< 0.1,
Cc1nn2c(C3CC3)c(C(=O)N[C@H]3CCOc4ccccc43)cnc2c1-c1cnn(CC2CC2)c1 [Example 470],> 80,< 10,2.92,7.94,,,
Cc1nn2c(N3CCOCC3)c(C(=O)N[C@H]3CCOc4ccccc43)cnc2c1-c1cc(Cl)cc(Cl)c1 [Example 516],> 80,< 0.1,3.99,5.01,< 0.1,,> 80
Cc1nn2c(N3CCOCC3)c(C(=O)N[C@H]3CCOc4ccccc43)cnc2c1-c1cccc(F)c1F [Example 534],,< 0.1,4.32,3.16,< 0.1,< 0.1,
Cc1nn2c(N3CCOCC3)c(C(=O)N[C@H]3CCOc4ccccc43)cnc2c1-c1c(F)ccc(F)c1F [Example 535],,< 0.1,3.29,2.51,< 0.1,< 0.1,
